Measured values taken from patent US11744844B2, “Selective estrogen receptor degraders” (Eli Lilly and Company, priority 2021, dated 2023).
Structures can show the parent of a compound that is named as a salt.

Assays:
[1] = target: T1, Y537N mutant ERα receptor (Homo sapiens, UniProt P03372, Y537N); test: PRα inhibition (ERα functional antagonism) cell assay in MCF7-ESR1 Y537N 682 CRISPR cells; assay type: cell-based; settings: MCF7 Y537N 682 CRISPR cells (heterozygous mutant), 72 hours; read-out: Relative IC50, PRα inhibition (ERα functional antagonism)
T1 construct: generated by CRISPR/Cas9 gene editing of ESR1 gene in MCF7 cells, clone #682; endogenous in cells; host or cells: MCF7-ESR1 Y537N-682 (CRISPR/Cas9-edited MCF7, clone #682)
T1 sequence (P03372 1-595 Y537N): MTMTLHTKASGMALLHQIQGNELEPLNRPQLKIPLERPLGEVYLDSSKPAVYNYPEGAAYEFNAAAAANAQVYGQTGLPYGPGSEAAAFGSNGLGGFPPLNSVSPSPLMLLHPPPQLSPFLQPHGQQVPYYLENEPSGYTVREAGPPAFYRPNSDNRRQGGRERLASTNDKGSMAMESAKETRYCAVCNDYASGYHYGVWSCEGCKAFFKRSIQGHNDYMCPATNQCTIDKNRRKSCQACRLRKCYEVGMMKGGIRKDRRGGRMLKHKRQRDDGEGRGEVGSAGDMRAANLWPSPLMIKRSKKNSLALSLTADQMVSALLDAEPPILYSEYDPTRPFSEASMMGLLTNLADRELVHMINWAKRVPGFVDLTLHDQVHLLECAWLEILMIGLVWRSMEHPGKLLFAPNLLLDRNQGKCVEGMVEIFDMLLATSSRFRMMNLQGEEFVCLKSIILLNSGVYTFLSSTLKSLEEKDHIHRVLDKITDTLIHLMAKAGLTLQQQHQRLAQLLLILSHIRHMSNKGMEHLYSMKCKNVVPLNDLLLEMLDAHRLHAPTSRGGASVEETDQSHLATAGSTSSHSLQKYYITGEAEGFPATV
From the text: The purpose of the following PRα inhibition (ERα functional antagonism) cell assay is to determine the antagonistic activity of a test compound against the Y537N mutant ERα receptor. An antagonist in this assay is expected to block the function of the ERα receptor.
Culture MCF7-ESR1 Y537N-682 (generated by CRISPR/Cas9 gene editing of ESR1 gene in MCF7 cells, clone #682) in DMEM media supplemented with 10% FBS and 1% penicillin/streptomycin antibiotics and plate the cells (prior to becoming 70% confluent) in 384-well flat-bottom plates at a density of 4,000 cells per well in DMEM phenol red free media 10% FBS (20 μL volume) (charcoal stripped). Incubate the cells overnight in a cell culture incubator (5% CO2, 95% relative humidity and 37° C.) and allow the cells to attach to the plate. The following day dose the cells with the test compound. Use an Echo 555 acoustic dispenser to prepare compound serial dilutions (1:3) in a range from 6 μM to 0.0003 μM. […]
The following day wash the cells with PBS […] (2×20 μL) and incubate with secondary antibody (20 μL/well) (1:1000 dilution, Goat anti-rabbit IgM ALEXA FLUOR™ 488) in PBS 1% BSA for 105 minutes at room temperature. […] Scan the plates with ACUMEN EXPLORER™ [Laser-scanning fluorescence microplate cytometer manufactured by TTP LABTECH LTD] to measure PRα. […]

[2] = tested on: MCF7 ESR1 wild type cells; test: Cell proliferation assay in MCF7; assay type: cell-based; settings: Homo sapiens, 168 h, seven days, read-out: Relative IC50 MCF7 ESR1 wild type, cell proliferation
Method: The purpose of the following cell proliferation assays generally is to detect whether a test compound has effects on cell proliferation.
Seed MCF7 (purchased from ATCC HTB-22) cells at a density of 2,000 cells per well in DMEM phenol red free media 10% FBS (20 μL volume) (charcoal stripped) into a clear bottom 384-well cell culture plate. Plate MCF7-ESRY537N-682 (generated by CRISPR/Cas9 gene editing of ESr1 gene in MCF7 cells, clone #682) in DMEM media supplemented with 10% FBS, and 1% penicillin/streptomycin antibiotics at a density of 1000 cells per well. Incubate the plates at 37° C. and 5% CO2. The following day dose the cells with the test compound. Use an Echo 555 acoustic dispenser to prepare test compound serial dilutions (1:3) in a range from 60 μM to 0.003 μM. Dose the cells with the addition of 5 μL from the serial dilution plate to the cell plate, producing a final DMSO concentration of 0.2% with a final test compound concentration dose range between 20 and 0.001 μM. For the maximum point use media containing 0.2% of DMSO and for the minimum point use fulvestrant diluted at 2 μM final concentrations in the growth media containing 0.2% DMSO. After dosing with the test compound, incubate the cell plates at 37° C. and 5% CO2. […] Scan the plates with ACUMEN EXPLORER™ (Laser-scanning fluorescence microplate cytometer manufactured by TTP LABTECH LTD).

IC50 [1] [µM]	IC50 [2] [µM]	Structure (SMILES)
0.33 ± 0.116	0.518 ± 0.0499	O=S(=O)(O)Oc1ccc2c3c(cnc2c1)-c1ccc(C(F)(F)F)cc1O[C@@H]3c1ccc(OCCN2CC(CF)C2)cc1 [Example 1, [(5R)-5-[4-[2-[3-(Fluoromethyl)azetidin-1-yl]ethoxy]phenyl]-8-(trifluoromethyl)-5H-chromeno[4,3-c]quinolin-2-yl]hydrogen sulfate]
0.47 ± 0.058	0.55 ± 0.238	O=C(O)[C@H]1O[C@@H](Oc2ccc3c4c(cnc3c2)-c2ccc(C(F)(F)F)cc2O[C@@H]4c2ccc(OCCN3CC(CF)C3)cc2)[C@H](O)[C@@H](O)[C@@H]1O [Example 2, (2S,3S,4S,5R,6S)-6-[[(5R)-5-[4-[2-[3-(Fluoromethyl)azetidin-1-yl]ethoxy]phenyl]-8-(trifluoromethyl)-5H-chromeno[4,3-c]quinolin-2-yl]oxy]-3,4,5-trihydroxy-tetrahydropyran-2-carboxylic acid]
